# Test results: patent publication US20230020342A1, “METHOD FOR PRODUCING POLYOL-BASED ESTERS, IN PARTICULAR POLYGLYCEROL ESTERS, FROM HYDROXY CARBOXYLIC ACIDS” (IOI Oleo GmbH, priority 2019, published 2023)
# System: pancreatin (Panzytrat 40,000)
# Experiment: Cleavage experiments with pancreatin in water, followed by acid number
# Settings: individual esters in pure form, 50° C.
# Experimental: The pancreatin is used in the form of the commercially available product Panzytrat® 40,000 from the Allergan company. The whole mixture is stirred on a hot plate at 50° C.; the course of the reaction is determined and monitored by continuously recording the acid number over time.
row,Substance,cleavage by pancreatin to free 3-hydroxybutyric acid (3-BHB-FS)
1,3-hydroxybutyric acid mono-diglycerol ester,cleaved by pancreatin to the free 3-hydroxybutyric acid
2,3-hydroxybutyric acid tri-diglycerol ester,cleaved by pancreatin to the free 3-hydroxybutyric acid
3,3-hydroxybutyric acid di-diglycerol ester,cleaved by pancreatin to the free 3-hydroxybutyric acid
